Source: the supplement of paper PMC11061612

Assays:
Experiment in all cases: Bliss excess, mean over the matrix (fraction); higher = more synergy
TK10 (Kidney Carcinoma) = system: TK10 (Kidney Carcinoma)
Procedure, shortened: (§1)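 Bliss excess equals the observed combination effect minus the expected value EA + EB − EA·EB, where EA and EB are the effects of each agent alone. Combination Emax is the second-highest inhibition within the matrix. Inhibition was scaled from CellTiter-Glo 2.0 luminescence, with 0 set by vehicle wells and 1 by blank wells, after 72 hours of two-drug dosing of cells plated in 1536-well plates.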

[1] = system: KYSE-450 (Esophageal Squamous Cell Carcinoma)
Procedure, shortened: as §1

[2] = system: KARPAS-299 (T-Cell Non-Hodgkin's Lymphoma)
Procedure, shortened: as §1

[3] = system: TE-1 (Esophageal Squamous Cell Carcinoma)
Procedure, shortened: as §1

[4] = system: EoL-1-cell (Acute Myeloid Leukemia)
Procedure, shortened: as §1

[5] = system: RF-48 (B-Cell Non-Hodgkin's Lymphoma)
Procedure, shortened: as §1

EW-24 (Ewing's Sarcoma) = system: EW-24 (Ewing's Sarcoma)
Procedure, shortened: as §1

[6] = system: OE19 (Esophageal Adenocarcinoma)
Procedure, shortened: as §1

YH-13 (Glioblastoma) = system: YH-13 (Glioblastoma)
Procedure, shortened: as §1

UACC-62 (Melanoma) = system: UACC-62 (Melanoma)
Procedure, shortened: as §1

[7] = system: NCI-H727 (Other Solid Carcinomas)
Procedure, shortened: as §1

[8] = system: AMO-1 (Plasma Cell Myeloma)
Procedure, shortened: as §1

ACHN (Kidney Carcinoma) = system: ACHN (Kidney Carcinoma)
Procedure, shortened: as §1

TGW (Neuroblastoma) = system: TGW (Neuroblastoma)
Procedure, shortened: as §1

D-263MG (Glioblastoma) = system: D-263MG (Glioblastoma)
Procedure, shortened: as §1

[9] = system: Ca9-22 (Head and Neck Carcinoma)
Procedure, shortened: as §1

[10] = system: Caov-4 (Ovarian Carcinoma)
Procedure, shortened: as §1

NB69 (Neuroblastoma) = system: NB69 (Neuroblastoma)
Procedure, shortened: as §1

[11] = system: HSC-4 (Oral Cavity Carcinoma)
Procedure, shortened: as §1

[12] = system: SCC-15 (Oral Cavity Carcinoma)
Procedure, shortened: as §1

Structure (SMILES) | Bliss excess (TK10 (Kidney Carcinoma)) | Bliss excess [1] | Bliss excess [2] | Bliss excess [3] | Bliss excess [4] | Bliss excess [5] | Bliss excess (EW-24 (Ewing's Sarcoma)) | Bliss excess [6] | Bliss excess (YH-13 (Glioblastoma)) | Bliss excess (UACC-62 (Melanoma)) | Bliss excess [7] | Bliss excess [8] | Bliss excess (ACHN (Kidney Carcinoma)) | Bliss excess (TGW (Neuroblastoma)) | Bliss excess (D-263MG (Glioblastoma)) | Bliss excess [9] | Bliss excess [10] | Bliss excess (NB69 (Neuroblastoma)) | Bliss excess [11] | Bliss excess [12]
CS(=O)(=O)CCNCc1ccc(-c2ccc3ncnc(Nc4ccc(OCc5cccc(F)c5)c(Cl)c4)c3c2)o1 [Lapatinib] + C[C@@H](Oc1cc(-c2cnn(C3CCNCC3)c2)cnc1N)c1c(Cl)ccc(F)c1Cl [Crizotinib] (first compound max 10 µM, 7x7, partner max 10 µM) | -0.0655 | -0.0486 | 0.0532 | 0.0266 | -0.0547 | -0.0441 | -0.0105 | -0.007 | -0.0388 | -0.0153 | -0.0097 | -0.0458 | -0.0558 | -0.0659 | -0.0621 | -0.0383 | -0.0451 | -0.0592 | -0.0097 | -0.0015
CC1(C)CCC(CN2CCN(c3ccc(C(=O)NS(=O)(=O)c4ccc(NCC5CCOCC5)c([N+](=O)[O-])c4)c(Oc4cnc5[nH]ccc5c4)c3)CC2)=C(c2ccc(Cl)cc2)C1 [Venetoclax] + Cn1cnc2c(F)c(Nc3ccc(Br)cc3Cl)c(C(=O)NOCCO)cc21 [Selumetinib] (first compound max 1 µM, 7x7, partner max 3 µM) | -0.109 | -0.0432 | -0.0102 | 0.0008 | 0.158 | -0.0034 | -0.0463 | -0.0484 | -0.0542 | -0.0235 | -0.0534 | 0.0092 | -0.0151 | 0.0099 | -0.0292 | 0.0054 | 0.0087 | 0.0179 | -0.0211 | -0.0428
COc1nnc2ccc(N3CCC(c4ccc(OCCN5CCN(C)C(=O)[C@H]5C)cc4)CC3)nn12 [AZD5153] + C=CCn1c(=O)c2cnc(Nc3ccc(N4CCN(C)CC4)cc3)nc2n1-c1cccc(C(C)(C)O)n1 [AZD1775] (first compound max 1 µM, partner max 1 µM) | -0.0831 | -0.0699 | -0.0336 | -0.0357 | -0.011 | -0.012 | -0.0125 | -0.0441 | -0.0451 | -0.0529 | -0.0299 | -0.0881 | -0.0396 | -0.0689 | -0.0619 | -0.0453 | -0.0316 | -0.0206 | -0.0852 | -0.0427
Cn1cnc2c(F)c(Nc3ccc(Br)cc3Cl)c(C(=O)NOCCO)cc21 [Selumetinib] + CCN(CCO)CCCOc1ccc2c(Nc3cc(CC(=O)Nc4cccc(F)c4)[nH]n3)ncnc2c1 [AZD2811] (first compound max 10 µM, 7x7, partner max 1 µM) | -0.0589 | -0.0117 | 0.0227 | 0.0378 | 0.0206 | -0.0305 | -0.014 | -0.0015 | -0.14 | -0.0289 | -0.0389 | 0.0538 | 0.0086 | -0.026 | -0.0385 | 0.0241 | -0.0643 | -0.0155 | -0.0442 | -0.0377
COc1cccc2c1C(=O)c1c(O)c3c(c(O)c1C2=O)C[C@@](O)(C(=O)CO)C[C@@H]3O[C@H]1C[C@H](N)[C@H](O)[C@H](C)O1 [Doxorubicin] + Cc1cc2ncnn2cc1Nc1ncc2c(n1)n(C1CCOCC1)c(=O)n2C [AZD7648] (first compound max 1 µM, 7x7, partner max 10 µM) | 0.0138 | 0.0487 | 0.1 | -0.022 | 0.155 | 0.021 | 0.0145 | 0.0189 | 0.0443 | 0.0306 | -0.0417 | 0.0818 | 0.068 | 0.0041 | 0.032 | 0.0703 | 0.056 | 0.0516 | 0.0047 | 0.0028
COc1cccc(OCCCN)c1-c1cc(Nc2cnc(C#N)cn2)n[nH]1 [Prexasertib] + O=C(c1cc(Cc2n[nH]c(=O)c3ccccc23)ccc1F)N1CCN(C(=O)C2CC2)CC1 [Olaparib] (first compound max 1 µM, 7x7, partner max 10 µM) | -0.0975 | -0.025 | -0.0318 | -0.11 | -0.0146 | -0.0216 | -0.0292 | -0.125 | -0.0598 | -0.0183 | -0.259 | -0.0584 | -0.0857 | -0.0665 | -0.0665 | -0.007 | -0.0542 | -0.0313 | 0.029 | 0.0242
CC1(C)CCC(CN2CCN(c3ccc(C(=O)NS(=O)(=O)c4ccc(NCC5CCOCC5)c([N+](=O)[O-])c4)c(Oc4cnc5[nH]ccc5c4)c3)CC2)=C(c2ccc(Cl)cc2)C1 [Venetoclax] + Cc1cc2ncnn2cc1Nc1ncc2c(n1)n(C1CCOCC1)c(=O)n2C [AZD7648] (first compound max 1 µM, 7x7, partner max 10 µM) | -0.102 | -0.0515 | 0.0487 | -0.0451 | 0.0489 | -0.0106 | -0.0699 | -0.0253 | -0.0484 | -0.0424 | -0.0634 | -0.0116 | -0.0244 | 0.0025 | -0.0572 | -0.0241 | -0.0492 | 0.0069 | -0.058 | -0.0303
